Patent USRE47689E1, “Compounds for treating spinal muscular atrophy” (PTC Therapeutics, Inc., priority 2011, dated 2019)

Tests used:
Smn protein = Smn protein assay in cultured cells (SMN HTRF); type: cell-based, human; settings: 48 hours; for EC1.5x (concentration giving 1.5-fold Smn protein increase): SMA Type 1 patient fibroblast cells (GM03813), 7-point concentration curve, SMN HTRF, concentration producing 1.5 times Smn protein vs DMSO vehicle control, read-out: EC1.5x for Smn protein expression; for maximum fold (Fold) increase of Smn protein: SMA patient fibroblast cells, 7-point concentration data, fold increase relative to vehicle control (SMN HTRF)
Protocol: The SMN HTRF (homogeneous time resolved fluorescence) assay is used to quantify the level of Smn protein in SMA patient fibroblast cells treated with test compounds.
Protocol. Cells are thawed and cultured in DMEM-10% FBS for 72 hours. Cells are trypsinized, counted and resuspended to a concentration of 25,000 cells/mL in DMEM-10% FBS. […] 1 μL of test compound solution is transferred to cell-containing wells and cells are incubated for 48 hours in a cell culture incubator (37° C., 5% CO2, 100% relative humidity). Triplicate samples are set up for each test compound concentration. After 48 hours, the supernatant is removed from the wells and 25 μL of the RIPA lysis buffer, containing protease inhibitors, is added to the wells and incubated with shaking at room temperature for 1 hour. 25 μL of the diluent is added and then 35 μL of the resulting lysate is transferred to a 384-well plate, where each well contains 5 μL of the antibody solution (1:100 dilution of anti-SMN d2 and anti-SMN kryptate in SMN reconstitution buffer). The plate is centrifuged for 1 minute to bring the solution to the bottom of the wells, then incubated overnight at room temperature. Fluorescence for each well of the plate at 665 nm and 620 nm is measured on an EnVision multilabel plate reader (Perkin-Elmer).
The normalized fluorescence signal is calculated for each sample, Blank and vehicle control well by dividing the signal at 665 nm by the signal at 620 nm. Normalizing the signal accounts for possible fluorescence quenching due to the matrix effect of the lysate. The ΔF value (a measurement of Smn protein abundance) for each sample well is calculated by subtracting the normalized average fluorescence for the Blank control wells from the normalized fluorescence for each sample well and then dividing this difference by the normalized average fluorescence for the Blank control wells. The resulting ΔF value for each sample well represents the Smn protein abundance from test compound-treated samples. The ΔF value for each sample well is divided by the ΔF value for the vehicle control wells to calculate the fold increase in Smn protein abundance relative to the vehicle control.
An EC1.5x for Smn protein expression between >3 μM and ≤10 μM is indicated by one star (*), an EC1.5x between >1 and ≤3 μM is indicated by two stars (**), an EC1.5x between >0.3 μM and ≤1 μM is indicated by three stars (***) and an EC1.5x≤0.3 μM is indicated by four stars (****).

[1] = tested on: SMN2 minigene (full length SMN2 minigene mRNA containing SMN2 exon 7); test: SMN2 minigene mRNA splicing RT-qPCR assay in cultured cells; type: cell-based, human; settings: HEK293H cells stably transfected with SMN2-A minigene, 24 hours, 7-point concentration curve, 1.5-fold relative to vehicle-treated cells; for EC (1.5-fold): Homo sapiens, HEK293-H, read-out: EC1.5x for production of full length SMN2 mRNA
Protocol: The reverse transcription-quantitative PCR-based (RT-qPCR) assay is used to quantify the level of the full length SMN2 minigene mRNA containing SMN2 exon 7 in a HEK293H cell line stably transfected with said minigene and treated with a test compound.
Protocol. HEK293H cells stably transfected with the SMN2-A minigene construct described above (10,000 cells/well) are seeded in 200 μL of cell culture medium (DMEM plus 10% FBS, with 200 μg/mL hygromycin) in 96-well flat-bottom plates and the plate is immediately swirled to ensure proper dispersal of cells, forming an even monolayer of cells. Cells are allowed to attach for at least 4-6 hours. […] A solution of test compound (1 μL, 200× in DMSO) is added to each cell-containing well and the plate is incubated for 24 hours in a cell culture incubator (37° C., 5% CO2, 100% relative humidity). 2 replicates are prepared for each test compound concentration. The cells are then lysed in Cells-To-Ct lysis buffer and the lysate is stored at −80° C.
The combination of these three oligonucleotides detects only SMN1 or SMN2 minigenes (RT-qPCR) and will not detect endogenous SMN1 or SMN2 genes.
The SMN forward and reverse primers are used at final concentrations of 0.4 μM.
The SMN2-minigene GAPDH mix (15 μL total volume) is prepared by combining 7.5 μL of 2×RT-PCR buffer, 0.4 μL of 25×RT-PCR enzyme mix, 0.75 μL of 20×GAPDH primer-probe mix, 4.0075 μL of water, 2 μL of 10-fold diluted cell lysate, 0.06 μL of 100 μM SMN forward primer, 0.06 μL of 100 μM SMN reverse primer, and 0.225 μL of 100 μM SMN probe.
PCR is carried out at the following temperatures for the indicated time: Step 1: 48° C. (15 min); Step 2: 95° C. (10 min); Step 3: 95° C. (15 sec); Step 4: 60° C. (1 min); then repeat Steps 3 and 4 for a total of 40 cycles.
Each reaction mixture contains both SMN2-A minigene and GAPDH primers/probe sets (multiplex design), allowing simultaneous measurement of the levels of two transcripts.
Two SMN spliced products are generated from the SMN2 minigene. The first spliced product containing exon 7, corresponding to full length SMN2 mRNA, is called SMN2mini FL. The second one lacking exon 7 is called SMN2mini Δ7.
The amplification efficiency E is calculated from the slope of the amplification curve for SMN2mini FL and GAPDH individually. The abundances of SMN2mini FL and GAPDH are then calculated as […], where Ct is the threshold value for each amplicon. The abundance of SMN2mini FL is normalized to GAPDH abundance. The normalized SMN2mini FL abundance from test compound-treated samples is then divided by normalized SMN2mini FL abundance from vehicle-treated cells to determine the level of SMN2 FL mRNA relative to vehicle control.
An EC1.5x for production of full length SMN2 mRNA between >3 μM and ≤30 μM is indicated by one star (*), an EC1.5x between >1 μM and ≤3 μM is indicated by two stars (**), an EC1.5x between >0.3 μM and ≤1 μM is indicated by three stars (***), an EC1.5x between >0.1 μM and ≤0.3 μM is indicated by four stars (****) and an EC1.5x≤0.1 μM is indicated by five stars (*****).

Cc1cn2cc(-c3cc4ccc(N5CCN6CCC[C@H]6C5)cc4oc3=O)nc2cn1 [Compound 609, 7-[(8aS)-hexahydropyrrolo[1,2-a]pyrazin-2(1H)-yl]-3-(6-methylimidazo[1,2-a]pyrazin-2-yl)-2H-chromen-2-one]
EC1.5x (concentration giving 1.5-fold Smn protein increase) (Smn protein): < 300 nM
maximum fold (Fold) increase of Smn protein (Smn protein): ***** (fold increase >1.65)
EC (1.5-fold) [1]: < 0.1 µM

COCCNCCOc1ccc2cc(-c3cn4cc(C)nc(C)c4n3)c(=O)oc2c1 [Compound 960, 3-(6,8-dimethylimidazo[1,2-a]pyrazin-2-yl)-7-{2-[(2-methoxyethyl)amino]ethoxy}-2H-chromen-2-one]
EC1.5x (concentration giving 1.5-fold Smn protein increase) (Smn protein): 1000 to 3000 nM
maximum fold (Fold) increase of Smn protein (Smn protein): *** (fold increase between >1.35 and ≤1.5)
EC (1.5-fold) [1]: < 0.1 µM

Cc1cccn2cc(-c3cc4ccc(N5C[C@H](C)NC[C@H]5C)cc4oc3=O)nc12 [Compound 166, 7-[(2R,5S)-2,5-dimethylpiperazin-1-yl]-3-(8-methylimidazo[1,2-a]pyridin-2-yl)-2H-chromen-2-one]
maximum fold (Fold) increase of Smn protein (Smn protein): ** (fold increase between >1.2 and ≤1.35)
EC (1.5-fold) [1]: 1 to 3 µM

Cc1cn2cc(-c3cc4ccc(N5CCN(C(C)C)[C@H](C)C5)cc4oc3=O)cc2c(C)n1 [Compound 813, 3-(1,3-dimethylpyrrolo[1,2-a]pyrazin-7-yl)-7-[(3R)-3-methyl-4-(propan-2-yl)piperazin-1-yl]-2H-chromen-2-one]
EC1.5x (concentration giving 1.5-fold Smn protein increase) (Smn protein): < 300 nM
maximum fold (Fold) increase of Smn protein (Smn protein): **** (fold increase between >1.5 and ≤1.65)
EC (1.5-fold) [1]: < 0.1 µM

Cc1cn2cc(-c3cc4ccc(N5CC6(CN(C)C6)C5)cc4oc3=O)nc2c(C)n1 [Compound 972, 3-(6,8-dimethylimidazo[1,2-a]pyrazin-2-yl)-7-(6-methyl-2,6-diazaspiro[3.3]hept-2-yl)-2H-chromen-2-one]
EC1.5x (concentration giving 1.5-fold Smn protein increase) (Smn protein): 3000 to 10000 nM
maximum fold (Fold) increase of Smn protein (Smn protein): *** (fold increase between >1.35 and ≤1.5)
EC (1.5-fold) [1]: 0.3 to 1 µM

Cc1cn2cc(-c3cc4ccc(N5CC6(CNC6)C5)cc4oc3=O)nc2c(C)n1 [Cpd 971, 7-(2,6-diazaspiro[3.3]hept-2-yl)-3-(6,8-dimethylimidazo[1,2-a]pyrazin-2-yl)-2H-chromen-2-one]
EC1.5x (concentration giving 1.5-fold Smn protein increase) (Smn protein): < 300 nM
maximum fold (Fold) increase of Smn protein (Smn protein): ***** (fold increase >1.65)
EC (1.5-fold) [1]: < 0.1 µM

Cc1cn2cc(-c3cc4ccc(N5CC[C@@H](CN)C5)cc4oc3=O)nc2c(C)n1 [Compound 964, 7-[(3S)-3-(aminomethyl)pyrrolidin-1-yl]-3-(6,8-dimethylimidazo[1,2-a]pyrazin-2-yl)-2H-chromen-2-one]
maximum fold (Fold) increase of Smn protein (Smn protein): ** (fold increase between >1.2 and ≤1.35)
EC (1.5-fold) [1]: 0.1 to 0.3 µM

Cc1cc2oc(-c3cc4ccc(N5CCNCC5)cc4oc3=O)cc2c(C)n1 [Compound 831, 3-(4,6-dimethylfuro[3,2-c]pyridin-2-yl)-7-(piperazin-1-yl)-2H-chromen-2-one]
maximum fold (Fold) increase of Smn protein (Smn protein): * (maximum fold increase of ≤1.2)
EC (1.5-fold) [1]: 1 to 3 µM

Cc1cn2cc(-c3cc4ccc(N5CCN[C@@H](C)C5)cc4oc3=O)nc2cn1 [Compound 569, 3-(6-methylimidazo[1,2-a]pyrazin-2-yl)-7-[(3S)-3-methylpiperazin-1-yl]-2H-chromen-2-one]
EC1.5x (concentration giving 1.5-fold Smn protein increase) (Smn protein): < 300 nM
maximum fold (Fold) increase of Smn protein (Smn protein): ***** (fold increase >1.65)
EC (1.5-fold) [1]: < 0.1 µM

CN1CCN(c2ccc3cc(-c4ccnc(C5CC5)n4)c(=O)oc3c2)CC1 [Compound 298, 3-(2-cyclopropylpyrimidin-4-yl)-7-(4-methylpiperazin-1-yl)-2H-chromen-2-one]
maximum fold (Fold) increase of Smn protein (Smn protein): * (maximum fold increase of ≤1.2)
EC (1.5-fold) [1]: 1 to 3 µM

Cc1csc2nc(-c3cc4ccc(N5CCNCC5)cc4oc3=O)cn12.Cl.Cl.Cl [Compound 141, 3-(3-methylimidazo[2,1-b][1,3]thiazol-6-yl)-7-(piperazin-1-yl)-2H-chromen-2-one hydrochloride (1:3)]
maximum fold (Fold) increase of Smn protein (Smn protein): * (maximum fold increase of ≤1.2)
EC1.5x for production of full length SMN2 mRNA [1]: ** (between >1 μM and ≤3 μM)

Cl.O=c1oc2cc(N3CCNCC3)ccc2cc1-c1ccnc(C2CC2)n1 [Compound 278, 3-(2-cyclopropylpyrimidin-4-yl)-7-(piperazin-1-yl)-2H-chromen-2-one hydrochloride]
maximum fold (Fold) increase of Smn protein (Smn protein): * (maximum fold increase of ≤1.2)
EC (1.5-fold) [1]: 0.3 to 1 µM

Cc1cn2cc(-c3cc4ccc(N5CC6(CNC6)C5)cc4oc3=O)cc(F)c2n1 [Compound 985, 7-(2,6-diazaspiro[3.3]hept-2-yl)-3-(8-fluoro-2-methylimidazo[1,2-a]pyridin-6-yl)-2H-chromen-2-one]
EC1.5x (concentration giving 1.5-fold Smn protein increase) (Smn protein): < 300 nM
maximum fold (Fold) increase of Smn protein (Smn protein): ***** (fold increase >1.65)
EC (1.5-fold) [1]: < 0.1 µM

Cc1cn2cc(-c3cc4ccc(N5CCCN(C(C)C)CC5)cc4oc3=O)cc2cn1 [Compound 753, 3-(3-methylpyrrolo[1,2-a]pyrazin-7-yl)-7-[4-(propan-2-yl)-1,4-diazepan-1-yl]-2H-chromen-2-one]
EC1.5x (concentration giving 1.5-fold Smn protein increase) (Smn protein): 1000 to 3000 nM
maximum fold (Fold) increase of Smn protein (Smn protein): *** (fold increase between >1.35 and ≤1.5)
EC (1.5-fold) [1]: < 0.1 µM

CC(C)c1nccc(-c2cc3ccc(N4CCNCC4)cc3oc2=O)n1.Cl [Compound 279, 7-(piperazin-1-yl)-3-[2-(propan-2-yl)pyrimidin-4-yl]-2H-chromen-2-one hydrochloride]
maximum fold (Fold) increase of Smn protein (Smn protein): * (maximum fold increase of ≤1.2)
EC (1.5-fold) [1]: 1 to 3 µM

Cc1nc2ccc(-c3cc4ccc(C5=CCNCC5)cc4oc3=O)nn2c1C1=CCNCC1 [Cpd 845, 3-[2-methyl-3-(1,2,3,6-tetrahydropyridin-4-yl)imidazo[1,2-b]pyridazin-6-yl]-7-(1,2,3,6-tetrahydropyridin-4-yl)-2H-chromen-2-one]
maximum fold (Fold) increase of Smn protein (Smn protein): * (maximum fold increase of ≤1.2)
